This test has as its target T1, hyaluronidase type I-S from bovine testes (BTH; Hyal) (Bos taurus, UniProt Q2YDK3).
T1 construct: gene SPAM1; commercial unlabeled enzyme from bovine testes
T1 sequence (Q2YDK3 36-553): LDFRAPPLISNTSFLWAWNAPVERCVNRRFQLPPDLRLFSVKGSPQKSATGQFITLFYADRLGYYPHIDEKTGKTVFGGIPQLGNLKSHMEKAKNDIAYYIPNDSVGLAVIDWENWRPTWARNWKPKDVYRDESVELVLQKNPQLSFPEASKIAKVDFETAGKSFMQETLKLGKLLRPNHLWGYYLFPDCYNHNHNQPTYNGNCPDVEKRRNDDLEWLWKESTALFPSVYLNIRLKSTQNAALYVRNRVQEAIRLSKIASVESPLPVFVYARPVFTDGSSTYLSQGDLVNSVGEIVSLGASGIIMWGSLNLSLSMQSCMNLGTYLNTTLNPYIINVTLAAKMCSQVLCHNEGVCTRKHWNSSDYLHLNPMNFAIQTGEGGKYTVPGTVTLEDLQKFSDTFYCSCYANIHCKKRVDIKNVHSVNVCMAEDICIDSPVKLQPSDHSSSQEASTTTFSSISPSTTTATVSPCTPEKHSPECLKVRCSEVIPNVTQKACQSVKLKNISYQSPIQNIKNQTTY
The test can be described thus: CE-UV enzymatic assay of hyaluronic acid degradation; inhibition at […] without trehalose ([…] with […] trehalose). In kind it is biochemical. The conditions noted are these: read-out: Inhibition at 1 mg/mL-Equation (1) / 0% Trehalose.

Take `O=c1cc(-c2ccc(O)cc2)oc2cc(O[C@@H]3O[C@H](CO)[C@@H](O)[C@H](O)[C@H]3O)cc(O)c12` [apigenin-7-glucoside]: the inhibition at 1000 µg/mL came to 25 ± 5%.

These data come from article PMC12525580, “Impacts of Tween-20, Glycerol, and Trehalose on Hyaluronidase Activity: Insights from Microscale Thermophoresis and Capillary Electrophoresis” (Molecules, 2025).
